Values after ≈ are worked out from the molar mass of the structure shown.
How the values were obtained:
[1] = tested on: Mycobacterium tuberculosis H37RV; test: Antibiotic test by using an agar plate dilution method; assay type: cell-based; conditions: 336 h, Culture medium 7H11, inoculum about 10^6 CFU/ml (5 μl), cultivated at 37° C. for 14 days, read-out: Minimum inhibitory concentration

melting point | Structure (SMILES) | MIC [1]
93 to 94 °C | C[C@]1(Cn2cc([N+](=O)[O-])nc2Br)CO1 | –
65.5 to 67 °C | C[C@]1(Cn2cc([N+](=O)[O-])nc2Cl)CO1 | –
93 to 94 °C | C[C@@]1(Cn2cc([N+](=O)[O-])nc2Br)CO1 | –

Structure (SMILES) | melting point | MIC [1]
C[C@]1(CN2CCN(c3ccc(OC(F)(F)F)cc3)CC2)Cn2cc([N+](=O)[O-])nc2O1 [Reference Example 7, (S)-2-[4-(4-trifluoromethoxyphenyl)piperazin-1-ylmethyl]-2-methyl-6-nitro-2,3-dihydroimidazo[2,1-b]oxazole] | 129 to 130 °C | 0.024 µg/mL (≈ 0.0562 µM)
